ChEMBL document CHEMBL5352439, “Design, synthesis, biological evaluation and molecular docking study of novel urea-based benzamide derivatives as potent poly(ADP-ribose) polymerase-1 (PARP-1) inhibitors” (Eur J Med Chem, 2022)

How the values were obtained:
[1] = tested on: MDA-MB-231; test: Antiproliferative activity against human MDA-MB-231 cells assessed as inhibition of cell growth at 20 uM incubated for 48 hrs by MTT assay; assay type: functional
[2] = tested on: A549; test: Antiproliferative activity against human A549 cells assessed as inhibition of cell growth at 20 uM incubated for 48 hrs by MTT assay; assay type: functional
[3] = tested on: HeLa; test: Antiproliferative activity against human HeLa cells assessed as inhibition of cell growth at 20 uM incubated for 48 hrs by MTT assay; assay type: functional
[4] = tested on: HCT-116; test: Antiproliferative activity against human HCT-116 cells assessed as inhibition of cell growth at 20 uM incubated for 48 hrs by MTT assay; assay type: functional
[5] = tested on: A-375; test: Antiproliferative activity against human A-375 cells assessed as inhibition of cell growth at 20 uM incubated for 48 hrs by MTT assay; assay type: functional
[6] = tested on: A549; test: Antiproliferative activity against human A549 cells assessed as inhibition of cell growth incubated for 48 hrs by MTT assay; assay type: functional, cell-based; conditions: A549, 48 h
[7] = tested on: MDA-MB-231; test: Antiproliferative activity against human MDA-MB-231 cells assessed as inhibition of cell growth incubated for 48 hrs by MTT assay; assay type: functional, cell-based; conditions: MDA-MB-231, 48 h
[8] = tested on: HeLa; test: Antiproliferative activity against human HeLa cells assessed as inhibition of cell growth incubated for 48 hrs by MTT assay; assay type: functional, cell-based
[9] = tested on: HCT-116; test: Antiproliferative activity against human HCT-116 cells assessed as inhibition of cell growth incubated for 48 hrs by MTT assay; assay type: functional, cell-based; conditions: HCT-116, 48 h
[10] = tested on: A-375; test: Antiproliferative activity against human A-375 cells assessed as inhibition of cell growth incubated for 48 hrs by MTT assay; assay type: functional, cell-based; conditions: A-375, 48 h
[11] = tested on: HCT-116; test: Inhibition of cell migration in human HCT-116 cells at 25 uM incubated for 24 hrs by wound healing assay (reference value: 32.0 %); assay type: functional
[12] = tested on: L02; test: Antiproliferative activity against human L02 cells assessed as inhibition of cell growth […] incubated for 48 hrs by MTT assay; assay type: functional, cell-based; conditions: L02, 48 h
[13] = tested on: HCT-116; test: Inhibition of cell migration in human HCT-116 cells at 25 uM incubated for 48 hrs by wound healing assay (reference value: 42.8 %); assay type: functional

IC50 [6] [µM] | IC50 [7] [µM] | IC50 [8] [µM] | IC50 [9] [µM] | IC50 [10] [µM] | Structure (SMILES) | inhibition at 20 µM [1] [%] | inhibition at 20 µM [2] [%] | inhibition at 20 µM [3] [%] | inhibition at 20 µM [4] [%] | inhibition at 20 µM [5] [%] | inhibition at 25 µM [11] [%] | IC50 [12] [µM] | inhibition at 25 µM [13] [%]
– | – | – | – | – | Cc1cccc(NC(=O)Nc2ccccc2CNc2ccccc2C(N)=O)c1 | 17.9 | 1.8 | < 1 | 71.9 | 34 | – | – | –
– | – | – | – | – | Cc1cccc(NC(=O)Nc2cccc(COc3ccccc3C(N)=O)c2)c1 | 3.6 | 57.7 | 48.6 | 66.5 | 43.7 | – | – | –
12.4 | 21.2 | 12.7 | 12.3 | 28.5 | NC(=O)c1ccccc1OCc1cccc(NC(=O)Nc2cccc(Cl)c2)c1 | 65.2 | 85 | 77.6 | 83.3 | 63.1 | – | – | –
– | – | – | – | – | COc1cccc(NC(=O)Nc2ccccc2COc2ccccc2C(N)=O)c1 | 37.3 | < 1 | 26.5 | 70.2 | 33.1 | – | – | –
26.8 | 24.7 | 29.3 | 25.3 | 37 | Cc1cccc(NC(=O)Nc2cccc(CNc3ccccc3C(N)=O)c2)c1 | 57.9 | 58.3 | 58 | 76.2 | 42.4 | – | – | –
– | – | – | – | – | NC(=O)c1ccccc1NCc1cccc(NC(=O)Nc2ccccc2)c1 | 51.2 | 66.2 | 49.8 | 64.6 | 36.9 | – | – | –
26.8 | 27.4 | 17.6 | 17.6 | 13.4 | NC(=O)c1ccccc1OCc1ccc(NC(=O)Nc2cccc(Br)c2)cc1 | 46.1 | 42.4 | 60.4 | 62.2 | 54 | – | – | –
25.8 | 24.9 | 15.2 | 16.1 | 26.7 | NC(=O)c1ccccc1OCc1ccc(NC(=O)Nc2cccc(Cl)c2)cc1 | 40.1 | 46.6 | 66.1 | 74 | 54.2 | – | – | –
– | – | – | – | – | NC(=O)c1ccccc1NCc1ccccc1NC(=O)Nc1cccc(Cl)c1 | 36.2 | 52.6 | 7.53 | 44.3 | 30 | – | – | –
– | – | – | – | – | NC(=O)c1ccccc1NCc1ccccc1NC(=O)Nc1cccc(Br)c1 | 19.2 | 36.1 | 15.5 | 29.1 | 38.2 | – | – | –
31.6 | 24.8 | 27.7 | 27.3 | 12.7 | O=C(c1cc(Cc2n[nH]c(=O)c3ccccc23)ccc1F)N1CCN(C(=O)C2CC2)CC1 [OLAPARIB] | – | – | – | – | – | 25.8 | 60.7 | 33.1
19.9 | 20.5 | 12.1 | 13.1 | 25.4 | NC(=O)c1ccccc1NCc1ccc(NC(=O)Nc2cccc(Cl)c2)cc1 | 47.3 | 52.6 | 76.5 | 63.6 | 58.3 | – | – | –
– | – | – | – | – | NC(=O)c1ccccc1OCc1ccc(NC(=O)Nc2ccccc2)cc1 | 45.5 | 24.3 | 20.1 | 34.2 | 37.3 | – | – | –
– | – | – | – | – | NC(=O)c1ccccc1NCc1ccc(NC(=O)Nc2cccc(F)c2)cc1 | 34.6 | 8.3 | 27.4 | 27 | 36.8 | – | – | –
– | – | – | – | – | NC(=O)c1ccccc1NCc1ccccc1NC(=O)Nc1cccc(F)c1 | 52.1 | < 1 | 44.6 | 40.5 | 28.3 | – | – | –
– | – | – | – | – | NC(=O)c1ccccc1OCc1ccccc1NC(=O)Nc1cccc(F)c1 | 40.4 | < 1 | < 1 | 18.9 | 22.5 | – | – | –
– | – | – | – | – | NC(=O)c1ccccc1OCc1ccccc1NC(=O)Nc1cccc(Cl)c1 | 30.2 | 35.4 | 32.7 | 72.4 | 34.1 | – | – | –
– | – | – | – | – | COc1cccc(NC(=O)Nc2ccc(COc3ccccc3C(N)=O)cc2)c1 | 53.4 | 33.1 | 21 | 56.7 | 33.1 | – | – | –

IC50 [6] [µM] | IC50 [7] [µM] | IC50 [8] [µM] | IC50 [9] [µM] | IC50 [10] [µM] | Structure (SMILES) | inhibition at 20 µM [1] [%] | inhibition at 20 µM [2] [%] | inhibition at 20 µM [3] [%] | inhibition at 20 µM [4] [%] | inhibition at 20 µM [5] [%] | inhibition at 25 µM [11] [%] | IC50 [12] [µM] | inhibition at 25 µM [13] [%]
– | – | – | – | – | COc1cccc(NC(=O)Nc2cccc(CNc3ccccc3C(N)=O)c2)c1 | 59.1 | < 1 | 27 | 30.2 | 25 | – | – | –
– | – | – | – | – | NC(=O)c1ccccc1NCc1ccccc1NC(=O)Nc1ccccc1 | 40.9 | 17.7 | < 1 | 83.3 | < 1 | – | – | –
– | – | – | – | – | NC(=O)c1ccccc1OCc1cccc(NC(=O)Nc2cccc(F)c2)c1 | 57.7 | 17 | 40.1 | 32.6 | 17.5 | – | – | –
– | – | – | – | – | NC(=O)c1ccccc1OCc1cccc(NC(=O)Nc2ccccc2)c1 | 15 | 54.7 | 41 | 71.1 | 40.6 | – | – | –
– | – | – | – | – | NC(=O)c1ccccc1OCc1ccc(NC(=O)Nc2cccc(F)c2)cc1 | 36.2 | 28.6 | 33.7 | 43 | 36.9 | – | – | –
– | – | – | – | – | COc1cccc(NC(=O)Nc2ccccc2CNc2ccccc2C(N)=O)c1 | 37.7 | 13.1 | < 1 | 45.3 | 35.4 | – | – | –
– | – | – | – | – | Cc1cccc(NC(=O)Nc2ccc(CNc3ccccc3C(N)=O)cc2)c1 | 50.5 | 2.12 | 39.6 | 33.7 | 14.3 | – | – | –
11.8 | 14.4 | 14 | 10.4 | 19.7 | NC(=O)c1ccccc1NCc1ccc(NC(=O)Nc2cccc(Br)c2)cc1 | 67.2 | 82.2 | 71.5 | 72.5 | 67.2 | – | – | –
– | – | – | – | – | NC(=O)c1ccccc1NCc1cccc(NC(=O)Nc2cccc(F)c2)c1 | 58.9 | < 1 | 28.9 | 45.6 | 17.9 | – | – | –
– | – | – | – | – | NC(=O)c1ccccc1OCc1ccccc1NC(=O)Nc1cccc(Br)c1 | 27.3 | 10.1 | 42.5 | 40.4 | 31.7 | – | – | –
– | – | – | – | – | Cc1cccc(NC(=O)Nc2ccccc2COc2ccccc2C(N)=O)c1 | 37.8 | 20.6 | < 1 | 80 | < 1 | – | – | –
– | – | – | – | – | Cc1cccc(NC(=O)Nc2ccc(COc3ccccc3C(N)=O)cc2)c1 | 42.2 | 10 | 37.5 | 24 | 23.7 | – | – | –
– | – | – | – | – | NC(=O)c1ccccc1NCc1ccc(NC(=O)Nc2ccccc2)cc1 | 45.2 | 29 | 32.3 | 41.2 | 35 | – | – | –
– | – | – | – | – | NC(=O)c1ccccc1OCc1ccccc1NC(=O)Nc1ccccc1 | 30.3 | 33 | 36 | 13.3 | 21.7 | – | – | –
41.5 | 21.6 | 21.9 | 14.2 | 29.8 | COc1cccc(NC(=O)Nc2ccc(CNc3ccccc3C(N)=O)cc2)c1 | 50 | 59.3 | 66.8 | 82.3 | 50.8 | – | – | –
15.6 | 16.1 | 34 | 11.3 | 25.4 | NC(=O)c1ccccc1NCc1cccc(NC(=O)Nc2cccc(Cl)c2)c1 | 70.9 | 85.3 | 44.4 | 84 | 75.7 | – | – | –
– | – | – | – | – | COc1cccc(NC(=O)Nc2cccc(COc3ccccc3C(N)=O)c2)c1 | 38.8 | 15.8 | 33.1 | 36.8 | 29.9 | – | – | –
